Measurements reported in PubChem BioAssay AID248 (DTP/NCI, 2004).
Several values for one entry are separate records, joined by “and”; a condition that tells them apart may be missing. Equal values may be shown once. Inconclusive results and toxic doses are left out. Cut-off read from the data, not from the text of the source: active = T/C of 150% or more; inactive = T/C below 125%.

System: L1210 leukemia ip in BDF1 mice, survival T/C
Assay: NCI In Vivo Anticancer Drug Screen. Data for tumor model L1210 Leukemia (intraperitoneal) in B6D2F1 (BDF1) mice
Conditions: endpoint: mean survival time, higher = longer survival
Method in brief: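 Ratio derived from survival: compound-dosed mice over vehicle-dosed mice, all bearing a transplantable tumor.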

[1] = dose: 100.0 mg/kg/injection, schedule: Q01DX001 (ip), vehicle: saline
[2] = dose: 200.0 mg/kg/injection, schedule: Q01DX001 (ip), vehicle: saline
[3] = dose: 400.0 mg/kg/injection, schedule: Q01DX001 (ip), vehicle: saline
[4] = dose: 100.0 mg/kg/injection, schedule: Q01DX001 (ip), vehicle: other
[5] = dose: 200.0 mg/kg/injection, schedule: Q01DX001 (ip), vehicle: other
[6] = dose: 400.0 mg/kg/injection, schedule: Q01DX001 (ip), vehicle: other
[7] = dose: 75.0 mg/kg/injection, schedule: Q01DX001 (ip), vehicle: saline
[8] = dose: 300.0 mg/kg/injection, schedule: Q01DX001 (ip), vehicle: saline
[9] = dose: 100.0 mg/kg/injection, schedule: Q01DX001 (ip), vehicle: saline with Tween-80
[10] = dose: 200.0 mg/kg/injection, schedule: Q01DX001 (ip), vehicle: saline with Tween-80
[11] = dose: 400.0 mg/kg/injection, schedule: Q01DX001 (ip), vehicle: saline with Tween-80
[12] = dose: 100.0 mg/kg/injection, schedule: Q01DX001 (ip), vehicle: Klucel (hydroxypropylcellulose) (HPC)
[13] = dose: 200.0 mg/kg/injection, schedule: Q01DX001 (ip), vehicle: Klucel (hydroxypropylcellulose) (HPC)
[14] = dose: 400.0 mg/kg/injection, schedule: Q01DX001 (ip), vehicle: Klucel (hydroxypropylcellulose) (HPC)

Measured: T/C

CC1=CC(C)(C)NC(=S)N1C
inactive: dose: 6.25 mg/kg/injection, schedule: Q04DX003 (ip), vehicle: saline with Tween-80 96 % of control | dose: 12.5 mg/kg/injection, schedule: Q04DX003 (ip), vehicle: saline with Tween-80 95 % of control | dose: 25.0 mg/kg/injection, schedule: Q04DX003 (ip), vehicle: saline with Tween-80 95 % of control | dose: 166.0 mg/kg/injection, schedule: Q01DX Z (ip), vehicle: methylcellulose (MC) 87 % of control

CC1=NN(c2ccccc2)C(=O)C1N=Nc1ccc([As](=O)(O)O)c(O)c1 (stereo unspecified)
inactive: [1] 96 % of control | [2] 102 % of control | [3] 100 % of control

COC(=O)C(OC(C)=O)C1OC(n2cnc3c(=S)nc[nH]c32)C(OC(C)=O)C1OC(C)=O (stereo unspecified)
inactive: [1] 96 % of control | [2] 102 % of control | [3] 97 % of control

COc1cc2cc3c4cc(OC)c(OC)cc4cc[n+]3c(/C=C/c3cccc([N+](=O)[O-])c3)c2cc1OC
inactive: dose: 100.0 mg/kg/injection, schedule: Q04DX002 (ip), vehicle: carboxymethylcellulose (CMC) 113 % of control | dose: 100.0 mg/kg/injection, schedule: Q04DX002 (ip), vehicle: other 97 % of control and 105 % of control and 109 % of control | dose: 100.0 mg/kg/injection, schedule: Q04DX003 (ip), vehicle: other 107 % of control | dose: 200.0 mg/kg/injection, schedule: Q04DX002 (ip), vehicle: carboxymethylcellulose (CMC) 109 % of control | dose: 200.0 mg/kg/injection, schedule: Q04DX002 (ip), vehicle: other 94 % of control and 104 % of control and 123 % of control | dose: 200.0 mg/kg/injection, schedule: Q04DX003 (ip), vehicle: other 119 % of control | dose: 400.0 mg/kg/injection, schedule: Q04DX002 (ip), vehicle: carboxymethylcellulose (CMC) 109 % of control | dose: 400.0 mg/kg/injection, schedule: Q04DX002 (ip), vehicle: other 108 % of control and 119 % of control | dose: 400.0 mg/kg/injection, schedule: Q04DX003 (ip), vehicle: other 105 % of control | dose: 800.0 mg/kg/injection, schedule: Q04DX002 (ip), vehicle: other 112 % of control

CCCCCCCCCCCCCCNC1=C(OC)C(=O)C(NCCCCCCCCCCCCCC)=C(OC)C1=O
inactive: [4] 95 % of control | [5] 104 % of control | [6] 90 % of control

CCOC(=O)c1ccc(N(CCOS(C)(=O)=O)CCOS(C)(=O)=O)cc1
inactive: dose: 7.1 mg/kg/injection, schedule: Q01DX015 (ip), vehicle: saline 98 % of control | dose: 10.0 mg/kg/injection, schedule: Q01DX015 (ip), vehicle: saline 102 % of control | dose: 16.0 mg/kg/injection, schedule: Q01DX015 (ip), vehicle: saline 108 % of control | dose: 25.0 mg/kg/injection, schedule: Q01DX015 (ip), vehicle: saline 113 % of control | [7] 109 % of control | dose: 100.0 mg/kg/injection, schedule: Q01DX015 (ip), vehicle: saline 87 % of control | [8] 120 % of control | dose: 600.0 mg/kg/injection, schedule: Q01DX001 (ip), vehicle: saline 122 % of control | dose: 1000.0 mg/kg/injection, schedule: Q01DX001 (ip), vehicle: saline 116 % of control

CCCCCCC(CCC1CCCCC1)C(=O)O (stereo unspecified)
inactive: [9] 88 % of control | [10] 96 % of control | [11] 92 % of control

COC(=N\S(=O)(=O)c1ccccc1)/C(=N\S(=O)(=O)c1ccccc1)OC
inactive: [12] 100 % of control | [13] 104 % of control | [14] 102 % of control

O=C1NC(=O)C(F)C(O)N1 (stereo unspecified)
inactive: dose: 5.0 mg/kg/injection, schedule: Q01DX001 (ip), vehicle: saline 102 % of control | dose: 10.0 mg/kg/injection, schedule: Q01DX001 (ip), vehicle: saline 101 % of control | dose: 20.0 mg/kg/injection, schedule: Q01DX001 (ip), vehicle: saline 96 % of control | dose: 40.0 mg/kg/injection, schedule: Q01DX001 (ip), vehicle: saline 101 % of control | dose: 80.0 mg/kg/injection, schedule: Q01DX001 (ip), vehicle: saline 108 % of control

CCOC(CNC(=O)c1cccc([N+](=O)[O-])c1)OCC
inactive: dose: 50.0 mg/kg/injection, schedule: Q01DX009 (ip), vehicle: Klucel (hydroxypropylcellulose) (HPC) 87 % of control | dose: 100.0 mg/kg/injection, schedule: Q01DX009 (ip), vehicle: Klucel (hydroxypropylcellulose) (HPC) 98 % of control | dose: 200.0 mg/kg/injection, schedule: Q01DX009 (ip), vehicle: Klucel (hydroxypropylcellulose) (HPC) 102 % of control

BrC1CC2C3CCC(C3)C2C1Br (stereo unspecified)
inactive: dose: 50.0 mg/kg/injection, schedule: Q01DX001 (ip), vehicle: carboxymethylcellulose (CMC) 91 % of control | dose: 100.0 mg/kg/injection, schedule: Q01DX001 (ip), vehicle: carboxymethylcellulose (CMC) 93 % of control | dose: 200.0 mg/kg/injection, schedule: Q01DX001 (ip), vehicle: carboxymethylcellulose (CMC) 93 % of control | dose: 400.0 mg/kg/injection, schedule: Q01DX001 (ip), vehicle: carboxymethylcellulose (CMC) 93 % of control

c1ccc(N/N=C2/CSCc3ccccc32)cc1
inactive: [9] 97 % of control | [10] 95 % of control | [11] 106 % of control

O=C1c2ccccc2C(Br)(c2ccccc2)C1Br (stereo unspecified)
inactive: dose: 12.5 mg/kg/injection, schedule: Q01DX009 (ip), vehicle: other 93 % of control | dose: 25.0 mg/kg/injection, schedule: Q01DX009 (ip), vehicle: other 89 % of control

Oc1ccccc1C=NCCN=Cc1ccccc1O.[Zn+2]
inactive: [4] 103 % of control | [5] 114 % of control | [6] 100 % of control

CC(C)C1C(C(C)C)N1C(=O)Nc1ccccc1 (stereo unspecified)
inactive: [12] 93 % of control | [13] 96 % of control | [14] 93 % of control

COc1ccc(CN2CCCN(Cc3ccc(OC)cc3OC)C2c2ccccn2)c(OC)c1
inactive: dose: 50.0 mg/kg/injection, schedule: Q01DX001 (ip), vehicle: saline 101 % of control | [1] 95 % of control | [2] 91 % of control | [3] 89 % of control

O=C(O)C(O)c1ccc([N+](=O)[O-])cc1 (stereo unspecified)
inactive: [7] 92 % of control | dose: 100.0 mg/kg/injection, schedule: Q04DX002 (ip), vehicle: saline with Tween-80 95 % of control | dose: 150.0 mg/kg/injection, schedule: Q01DX001 (ip), vehicle: saline 94 % of control | dose: 200.0 mg/kg/injection, schedule: Q04DX002 (ip), vehicle: saline with Tween-80 103 % of control | [8] 90 % of control | dose: 400.0 mg/kg/injection, schedule: Q04DX002 (ip), vehicle: saline with Tween-80 100 % of control
